In patent US20230219965A1 (KSQ Therapeutics, Inc., priority 2020, published 2023):
Where two headings read alike, the source gives them in different places.

Legend:
[1] = Liver microsomal metabolic stability, rat liver microsomes (RLM); conditions: rat, liver microsomes, t1/2 (min) in RLM, 1 μM compound, 1 mg/mL microsomes, NADPH
Method: Samples were prepared by adding 222.5 μL of a master solution (100 mM phosphate buffer and 1 mg/mL liver microsomes (HLM or RLM)) and 25 μL of a 10 mM NADPH solution to incubation plates, which were then warmed for 10 min. Each compound was separately dissolved in DMSO to prepare 10 mM stock solutions, which were then diluted to 100 μM with acetonitrile. A reaction was started by adding 2.5 μL of the 100 μM solution of each compound to separate incubation plates such that the final concentration of for each compound in each plate was 1 μM.
25 μL aliquots of each sample were taken at 0.5, 5, 10, 15, 20 and 30 minutes, and the reaction was stopped by adding 5 volumes of cold acetonitrile with IS (100 nM alprazolam, 200 nM caffeine and 100 nM tolbutamide). The samples were then centrifuged at 3,220 G for 30 minutes, and 100 μL of the supernatant fluid was mixed with 100 μL of ultra-pure H2O.
The samples were then analyzed by LC-MS/MS. Peak areas were determined from extracted ion chromatograms. Slope values (k) were determined by linear regression of the natural logarithm of the remaining percentage of the compound vs. incubation time curve. The in vitro half-life (in vitro t1/2) was determined from the slope value using the following equation:

[2] = Liver microsomal metabolic stability, human liver microsomes (HLM); conditions: human, liver microsomes
USP1/UAF1 enzyme = USP1/UAF1 enzyme (Homo sapiens, UniProt O94782); assay: USP1/UAF1 deubiquitination assay (ubiquitin-rhodamine 110 substrate); type: biochemical; conditions: read-out: USP1 IC50 (Ub-Rho)
Summary of the method: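 0.05 nM USP1/UAF1 was preincubated 10 min with compounds (dose response from 10 μM) in 50 mM Tris-HCl pH 7.8, 0.5 mM EDTA, 0.01% BSA, 1 mM DTT, 0.01% Tween-20. 150 nM ubiquitin-rhodamine 110 started the reaction, read kinetically 30 min at Ex480/Em540; IC50 by four-parameter fit versus no-enzyme and DMSO controls.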

[3] = ADME solubility determination in PBS at pH 2.0 and pH 7.4; type: physicochemical; conditions: phosphate buffered saline, 25 °C, thermodynamic from solid
Method: Certain Compounds of the Disclosure were assessed for ADME solubility at pH 2.0 and pH 7.4.
Stock solutions were prepared by adding each compound to DMSO at a concentration of 10 mM. Samples were prepared by adding 50 μL of each stock solution to separate vials. The vials were loaded onto a 96-well rack and dried. 500 μL of Phosphate Buffered Saline (PBS) pH 7.4 or PBS pH 2.0 were added into each vial. The vials were then shaken at 25° C. and 1,100 rpm for 24 hours.
After 24 hours, the vials were centrifuged at 3220 G and 25° C. for 30 minutes. The supernatant fluid was analyzed by LC-MS/MS against a standard of known concentration. The solubility of each sample was then calculated using the equation below: […]
where DF is the dilution factor.

[4] = pH 2, aqueous buffer, PBS pH 2.0, 25° C., read-out: Solubility at pH 2.0
[5] = pH 7.4, aqueous buffer, PBS pH 7.4, 25° C., read-out: Solubility at pH 7.4

Sequence of USP1/UAF1 enzyme (O94782 whole entry): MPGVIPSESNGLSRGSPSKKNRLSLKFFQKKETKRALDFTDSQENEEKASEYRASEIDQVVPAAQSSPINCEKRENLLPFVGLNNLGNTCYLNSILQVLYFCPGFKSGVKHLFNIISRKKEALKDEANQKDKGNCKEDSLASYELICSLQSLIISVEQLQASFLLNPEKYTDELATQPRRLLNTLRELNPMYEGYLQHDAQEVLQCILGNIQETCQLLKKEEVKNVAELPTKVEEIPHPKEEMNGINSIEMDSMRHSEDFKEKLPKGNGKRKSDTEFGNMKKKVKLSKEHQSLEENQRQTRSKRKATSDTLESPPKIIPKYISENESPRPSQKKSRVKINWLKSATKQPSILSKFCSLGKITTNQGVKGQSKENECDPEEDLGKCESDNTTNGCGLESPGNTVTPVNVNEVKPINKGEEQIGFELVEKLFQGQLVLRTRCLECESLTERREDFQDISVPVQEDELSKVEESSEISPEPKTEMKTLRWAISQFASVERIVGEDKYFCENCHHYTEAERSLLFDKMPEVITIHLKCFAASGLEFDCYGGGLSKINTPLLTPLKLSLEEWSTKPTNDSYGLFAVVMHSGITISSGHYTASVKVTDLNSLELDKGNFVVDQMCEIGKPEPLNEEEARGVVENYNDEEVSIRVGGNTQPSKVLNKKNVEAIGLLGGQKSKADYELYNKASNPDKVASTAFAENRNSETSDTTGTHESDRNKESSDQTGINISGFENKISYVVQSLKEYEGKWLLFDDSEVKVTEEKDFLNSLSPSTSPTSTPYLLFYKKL
Sequence of USP1/UAF1 enzyme (Q8TAF3 whole entry partner): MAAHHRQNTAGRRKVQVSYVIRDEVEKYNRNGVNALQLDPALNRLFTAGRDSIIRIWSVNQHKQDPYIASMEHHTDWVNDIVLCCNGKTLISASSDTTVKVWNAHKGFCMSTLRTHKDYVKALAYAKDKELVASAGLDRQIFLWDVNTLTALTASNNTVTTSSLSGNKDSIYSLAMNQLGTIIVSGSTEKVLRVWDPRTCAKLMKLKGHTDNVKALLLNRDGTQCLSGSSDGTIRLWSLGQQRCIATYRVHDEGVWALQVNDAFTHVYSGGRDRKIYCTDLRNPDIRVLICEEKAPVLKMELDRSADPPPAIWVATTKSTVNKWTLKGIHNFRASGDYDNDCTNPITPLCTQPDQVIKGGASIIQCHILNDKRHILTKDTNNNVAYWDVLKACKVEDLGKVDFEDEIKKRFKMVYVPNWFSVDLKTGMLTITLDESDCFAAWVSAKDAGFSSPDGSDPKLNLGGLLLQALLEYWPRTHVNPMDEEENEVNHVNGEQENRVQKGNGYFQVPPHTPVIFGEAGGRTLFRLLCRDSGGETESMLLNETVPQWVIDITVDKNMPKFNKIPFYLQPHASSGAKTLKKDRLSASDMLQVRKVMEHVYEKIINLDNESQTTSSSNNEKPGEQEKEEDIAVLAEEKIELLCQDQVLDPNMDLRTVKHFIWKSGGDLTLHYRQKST

Row | Compound | half-life at 1 μM [1] [min] | half-life at 1 μM [2] [min] | IC50 (USP1/UAF1 enzyme) [nM] | solubility at 24 h [3, 4] [µM] | solubility at 24 h [3, 5] [µM]
1 | CC(C)n1ncc(Cl)c1-c1cc2n(n1)CCC(=O)N2Cc1ccc(-c2cn(C)c(C(F)(F)F)n2)c(F)c1 [Example 130] | > 25 | > 25 | 100 to 500 | < 10 | < 10
2 | CCn1cc(C(F)(F)F)nc1-c1ccc(CN2C(=O)CCn3nc(-c4c(Cl)cnn4C4COC4)cc32)cc1 [Example 154, 2-(4-chloro-1-(oxetan-3-yl)-1H-pyrazol-5-yl)-4-(4-(1-ethyl-4-(trifluoromethyl)-1H-imidazol-2-yl)benzyl)-6,7-dihydropyrazolo[1,5-α]pyrimidin-5(4H)-one] | > 25 | > 25 | < 100 | < 10 | < 10
3 | CCn1cc(C(F)(F)F)nc1-c1ccc(CN2C(=O)CCn3nc(-c4c(C#N)cnn4C(C)C)cc32)cc1 [Example 156] | > 25 | > 25 | < 100 | < 10 | < 10
4 | CCn1cc(C(F)(F)F)nc1-c1c(F)cc(CN2C(=O)CCn3nc(-c4c(Cl)cnn4C(C)C)nc32)cc1OC [Example 187] | < 25 | > 25 | 100 to 500 | < 10 | < 10
5 | CCn1cc(C(F)(F)F)nc1-c1ccc(CN2C(=O)CCn3nc(-c4c(Cl)cnn4C(C)C)c(C#N)c32)cc1 [Example 223, 2-(4-chloro-1-isopropyl-1H-pyrazol-5-yl)-4-(4-(1-ethyl-4-(trifluoromethyl)-1H-imidazol-2-yl)benzyl)-5-oxo-4,5,6,7-tetrahydropyrazolo[1,5-α]pyrimidine-3-carbonitrile] | > 25 | < 25 | < 100 | < 10 | < 10
6 | CC(C)n1ncc(Cl)c1-c1cc2n(n1)CC(O)C(=O)N2Cc1ccc(-c2nc(C(F)(F)F)cn2C)cc1 (stereo not drawn) [Example 231, 2-(4-chloro-1-isopropyl-1H-pyrazol-5-yl)-6-hydroxy-4-(4-(1-methyl-4-(trifluoromethyl)-1H-imidazol-2-yl)benzyl)-6,7-dihydropyrazolo[1,5-α]pyrimidin-5(4H)-one] | > 25 | > 25 | 100 to 500 | < 10 | < 10
7 | CCn1cc(C(F)(F)F)nc1-c1ccc(NC2CCCn3nc(-c4c(Cl)cnn4C(C)C)nc32)cc1F (centres unmarked) [Example 257, 2-(4-chloro-1-isopropyl-1H-pyrazol-5-yl)-N-(4-(1-ethyl-4-(trifluoromethyl)-1H-imidazol-2-yl)-3-fluorophenyl)-5,6,7,8-tetrahydro-[1,2,4]triazolo[1,5-a]pyridin-8-amine] | > 25 | > 25 | 100 to 500 | < 10 | < 10
8 | COc1cccnc1-c1ccc(CN2C(=O)CCn3nc(-c4c(Cl)cnn4C(C)C)cc32)cc1Cl [Example 288] | < 25 | < 25 | < 100 | ≥ 10 | < 10
9 | CC(C)Oc1cccnc1-c1ccc(CN2C(=O)CCn3nc(-c4c(Cl)cnn4C(C)C)cc32)cc1Cl [Example 310] | < 25 | < 25 | < 100 | ≥ 10 | < 10
10 | CC(C)n1ncc(Cl)c1-c1cc2n(n1)CCC(=O)N2Cc1ccc(-c2ncccc2N(C)C)c(Cl)c1 [Example 312] | < 25 | < 25 | < 100 | ≥ 10 | < 10
11 | CCn1cc(C(F)(F)F)nc1-c1ccc(CN2C(=O)CCn3nc(-c4c(C(F)F)cnn4C(C)C)cc32)cc1F [Example 328, 2-(4-(difluoromethyl)-1-isopropyl-1H-pyrazol-5-yl)-4-(4-(1-ethyl-4-(trifluoromethyl)-1H-imidazol-2-yl)-3-fluorobenzyl)-6,7-dihydropyrazolo[1,5-α]pyrimidin-5(4H)-one] | > 25 | > 25 | 100 to 500 | ≥ 10 | < 10

Further lines, results first:

Row | half-life at 1 μM [1] [min] | half-life at 1 μM [2] [min] | IC50 (USP1/UAF1 enzyme) [nM] | solubility at 24 h [3, 4] [µM] | solubility at 24 h [3, 5] [µM] | Compound
12 | < 25 | < 25 | 100 to 500 | ≥ 10 | < 10 | CCn1cc(C(F)(F)F)nc1-c1ccc([C@H](C)N2C(=O)CCn3nc(-c4c(Cl)cnn4C(C)C)nc32)cc1OC [Example 179]
13 | > 25 | > 25 | < 100 | < 10 | < 10 | COc1cc(-c2nc(C(F)(F)F)cn2C(C)C)c(F)cc1CN1C(=O)CCn2nc(-c3c(OC)ncnc3C3CC3)nc21 [Example 202]
14 | > 25 | < 25 | < 100 | < 10 | ≥ 10 | COc1ncnc(C2CC2)c1-c1nc2n(n1)CCC(=O)N2[C@@H](C)c1ccc(-c2nc(C(F)(F)F)c(Br)n2C)cc1 [Example 205]
15 | > 25 | < 25 | 100 to 500 | ≥ 10 | < 10 | COc1ccnc(C2CC2)c1-c1nc2n(n1)CCC(=O)N2Cc1ccc(-c2nc(C(F)(F)F)cn2C(C)C)c(F)c1 [Example 207]
16 | < 25 | > 25 | < 100 | ≥ 10 | ≥ 10 | CCn1cc(C(F)(F)F)nc1-c1ccc([C@@H](C)N2C(=O)CCn3nc(-c4c(OC(F)F)ncnc4C4CC4)nc32)cc1 [Example 208]
17 | < 25 | < 25 | < 100 | ≥ 10 | < 10 | CCn1cc(C(F)(F)F)nc1-c1ccc([C@H](C)N2C(=O)CCn3nc(-c4c(OC(F)F)ncnc4C4CC4)nc32)cc1 [Example 209]
18 | > 25 | > 25 | < 100 | ≥ 10 | ≥ 10 | CCn1cc(C(F)(F)F)nc1-c1ccc([C@@H](C)n2c(=O)ccn3nc(-c4c(OC)ncnc4C4CC4)nc23)cc1F [Example 341, (R)-2-(4-cyclopropyl-6-methoxypyrimidin-5-yl)-4-(1-(4-(1-ethyl-4-(trifluoromethyl)-1H-imidazol-2-yl)-3-fluorophenyl)ethyl)-[1,2,4]triazolo[1,5-a]pyrimidin-5(4H)-one]
19 | > 25 | > 25 | < 100 | ≥ 10 | ≥ 10 | CCn1cc(C(F)(F)F)nc1-c1ccc([C@H](C)n2c(=O)ccn3nc(-c4c(OC)ncnc4C4CC4)nc23)cc1F [Example 342, (S)-2-(4-cyclopropyl-6-methoxypyrimidin-5-yl)-4-(1-(4-(1-ethyl-4-(trifluoromethyl)-1H-imidazol-2-yl)-3-fluorophenyl)ethyl)-[1,2,4]triazolo[1,5-a]pyrimidin-5(4H)-one]
